# Key:
# Assay in all cases: relative viability (nuclei count vs DMSO), 5 days (fraction); higher = more cells survive
# NCI-H2170 = test system: NCI-H2170
# Outline: (§1)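 Relative viability divides the nuclei count in treated wells by that in vehicle wells. Lung cancer cell lines were seeded in 1536-well plates, dosed by pin tool the next day, and fixed and stained after 5 days in one step with final 0.05% Triton X-100, 1% formaldehyde and 1 ug/ml Hoechst. Dosing was a single drug or a fixed anchor-drug dose plus five library-drug doses (not always all listed) in √10 steps, and values are medians of duplicate plates imaged at 4×.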
# SK-LU-1 = test system: SK-LU-1
# Outline: as §1
# UMC-11 = test system: UMC-11
# Outline: as §1
# HCC-366 = test system: HCC-366
# Outline: as §1
# NCI-H2342 = test system: NCI-H2342
# Outline: as §1
# NCI-H2228 = test system: NCI-H2228
# Outline: as §1
# NCI-H1915 = test system: NCI-H1915
# Outline: as §1
# LCLC-103H = test system: LCLC-103H
# Outline: as §1
# NCI-H1734 = test system: NCI-H1734
# Outline: as §1
# NCI-H23 = test system: NCI-H23
# Outline: as §1
# RERF-LC-KJ = test system: RERF-LC-KJ
# Outline: as §1
# NCI-H1975 = test system: NCI-H1975
# Outline: as §1
# NCI-H650 = test system: NCI-H650
# Outline: as §1
# SW 1573 = test system: SW 1573
# Outline: as §1
# HCC-827 = test system: HCC-827
# Outline: as §1
# SK-MES-1 = test system: SK-MES-1
# Outline: as §1
# A-427 = test system: A-427
# Outline: as §1
# LC-2-ad = test system: LC-2-ad
# Outline: as §1
# NCI-H1993 = test system: NCI-H1993
# Outline: as §1
# NCI-H1355 = test system: NCI-H1355
# Outline: as §1
# NCI-H2347 = test system: NCI-H2347
# Outline: as §1
# NCI-H1755 = test system: NCI-H1755
# Outline: as §1
compound,measurement,setting,value
Cc1cn(-c2cc(NC(=O)c3ccc(C)c(Nc4nccc(-c5cccnc5)n4)c3)cc(C(F)(F)F)c2)cn1 [Nilotinib] + O=C(CCCCCCC(=O)Nc1ccccc1)NO [Vorinostat] (partner 1 µM),relative viability,NCI-H2170; first compound 0.001 µM,0.818
same,relative viability,NCI-H2170; first compound 0.003162 µM,1.16
same,relative viability,NCI-H2170; first compound 0.01 µM,1.05
same,relative viability,NCI-H2170; first compound 0.03162 µM,0.622
same,relative viability,NCI-H2170; first compound 0.1 µM,0.877
same,relative viability,SK-LU-1; first compound 0.001 µM,0.628
same,relative viability,SK-LU-1; first compound 0.003162 µM,0.756
same,relative viability,SK-LU-1; first compound 0.01 µM,0.865
same,relative viability,SK-LU-1; first compound 0.03162 µM,0.632
same,relative viability,SK-LU-1; first compound 0.1 µM,0.692
same,relative viability,UMC-11; first compound 0.001 µM,0.359
same,relative viability,UMC-11; first compound 0.003162 µM,0.398
same,relative viability,UMC-11; first compound 0.01 µM,0.346
same,relative viability,UMC-11; first compound 0.03162 µM,0.336
same,relative viability,UMC-11; first compound 0.1 µM,0.458
same,relative viability,HCC-366; first compound 0.001 µM,0.33
same,relative viability,HCC-366; first compound 0.003162 µM,0.361
same,relative viability,HCC-366; first compound 0.01 µM,0.364
same,relative viability,HCC-366; first compound 0.03162 µM,0.27
same,relative viability,HCC-366; first compound 0.1 µM,0.212
same,relative viability,NCI-H2342; first compound 0.001 µM,0.675
same,relative viability,NCI-H2342; first compound 0.003162 µM,0.685
same,relative viability,NCI-H2342; first compound 0.01 µM,0.668
same,relative viability,NCI-H2342; first compound 0.03162 µM,0.681
same,relative viability,NCI-H2342; first compound 0.1 µM,0.655
same,relative viability,NCI-H2228; first compound 0.001 µM,0.659
same,relative viability,NCI-H2228; first compound 0.003162 µM,0.616
same,relative viability,NCI-H2228; first compound 0.01 µM,0.594
same,relative viability,NCI-H2228; first compound 0.03162 µM,0.501
same,relative viability,NCI-H2228; first compound 0.1 µM,0.588
same,relative viability,NCI-H1915; first compound 0.001 µM,0.454
same,relative viability,NCI-H1915; first compound 0.003162 µM,0.488
same,relative viability,NCI-H1915; first compound 0.01 µM,0.501
same,relative viability,NCI-H1915; first compound 0.03162 µM,0.385
same,relative viability,NCI-H1915; first compound 0.1 µM,0.299
same,relative viability,LCLC-103H; first compound 0.001 µM,0.74
same,relative viability,LCLC-103H; first compound 0.003162 µM,0.823
same,relative viability,LCLC-103H; first compound 0.01 µM,0.858
same,relative viability,LCLC-103H; first compound 0.03162 µM,0.691
same,relative viability,LCLC-103H; first compound 0.1 µM,0.433
same,relative viability,NCI-H1734; first compound 0.001 µM,0.761
same,relative viability,NCI-H1734; first compound 0.003162 µM,0.803
same,relative viability,NCI-H1734; first compound 0.01 µM,0.832
same,relative viability,NCI-H1734; first compound 0.03162 µM,0.626
same,relative viability,NCI-H1734; first compound 0.1 µM,0.371
same,relative viability,NCI-H23; first compound 0.001 µM,0.48
same,relative viability,NCI-H23; first compound 0.003162 µM,0.438
same,relative viability,NCI-H23; first compound 0.01 µM,0.685
same,relative viability,NCI-H23; first compound 0.03162 µM,0.239
same,relative viability,NCI-H23; first compound 0.1 µM,0.546
same,relative viability,RERF-LC-KJ; first compound 0.001 µM,0.624
same,relative viability,RERF-LC-KJ; first compound 0.003162 µM,0.698
same,relative viability,RERF-LC-KJ; first compound 0.01 µM,0.734
same,relative viability,RERF-LC-KJ; first compound 0.03162 µM,0.568
same,relative viability,RERF-LC-KJ; first compound 0.1 µM,0.453
same,relative viability,NCI-H1975; first compound 0.001 µM,0.598
same,relative viability,NCI-H1975; first compound 0.003162 µM,0.742
same,relative viability,NCI-H1975; first compound 0.01 µM,0.702
same,relative viability,NCI-H1975; first compound 0.03162 µM,0.489
same,relative viability,NCI-H1975; first compound 0.1 µM,0.643
same,relative viability,NCI-H650; first compound 0.001 µM,0.392
same,relative viability,NCI-H650; first compound 0.003162 µM,0.437
same,relative viability,NCI-H650; first compound 0.01 µM,0.445
same,relative viability,NCI-H650; first compound 0.03162 µM,0.407
same,relative viability,NCI-H650; first compound 0.1 µM,0.377
same,relative viability,SW 1573; first compound 0.001 µM,0.527
same,relative viability,SW 1573; first compound 0.003162 µM,0.849
same,relative viability,SW 1573; first compound 0.01 µM,0.977
same,relative viability,SW 1573; first compound 0.03162 µM,0.438
same,relative viability,SW 1573; first compound 0.1 µM,0.222
same,relative viability,HCC-827; first compound 0.001 µM,0.835
same,relative viability,HCC-827; first compound 0.003162 µM,0.983
same,relative viability,HCC-827; first compound 0.03162 µM,0.857
same,relative viability,HCC-827; first compound 0.1 µM,0.822
same,relative viability,SK-MES-1; first compound 0.001 µM,1.12
same,relative viability,SK-MES-1; first compound 0.003162 µM,0.623
same,relative viability,SK-MES-1; first compound 0.01 µM,1.33
same,relative viability,SK-MES-1; first compound 0.03162 µM,0.936
same,relative viability,SK-MES-1; first compound 0.1 µM,0.618
same,relative viability,A-427; first compound 0.001 µM,0.839
same,relative viability,A-427; first compound 0.003162 µM,0.892
same,relative viability,A-427; first compound 0.01 µM,0.935
same,relative viability,A-427; first compound 0.03162 µM,0.963
same,relative viability,A-427; first compound 0.1 µM,0.775
same,relative viability,LC-2-ad; first compound 0.001 µM,0.644
same,relative viability,LC-2-ad; first compound 0.003162 µM,0.851
same,relative viability,LC-2-ad; first compound 0.01 µM,0.772
same,relative viability,LC-2-ad; first compound 0.03162 µM,0.545
same,relative viability,LC-2-ad; first compound 0.1 µM,0.318
same,relative viability,NCI-H1993; first compound 0.001 µM,0.6
same,relative viability,NCI-H1993; first compound 0.003162 µM,0.655
same,relative viability,NCI-H1993; first compound 0.01 µM,0.843
same,relative viability,NCI-H1993; first compound 0.03162 µM,0.722
same,relative viability,NCI-H1993; first compound 0.1 µM,0.497
same,relative viability,NCI-H1355; first compound 0.001 µM,0.6
same,relative viability,NCI-H1355; first compound 0.003162 µM,0.695
same,relative viability,NCI-H1355; first compound 0.01 µM,0.67
same,relative viability,NCI-H1355; first compound 0.03162 µM,0.59
same,relative viability,NCI-H1355; first compound 0.1 µM,0.335
same,relative viability,NCI-H2347; first compound 0.001 µM,0.601
same,relative viability,NCI-H2347; first compound 0.003162 µM,0.516
same,relative viability,NCI-H2347; first compound 0.01 µM,0.712
same,relative viability,NCI-H2347; first compound 0.03162 µM,0.495
same,relative viability,NCI-H2347; first compound 0.1 µM,0.431
same,relative viability,NCI-H1755; first compound 0.001 µM,0.605
same,relative viability,NCI-H1755; first compound 0.003162 µM,0.755
same,relative viability,NCI-H1755; first compound 0.01 µM,0.695
same,relative viability,NCI-H1755; first compound 0.03162 µM,0.59
same,relative viability,NCI-H1755; first compound 0.1 µM,0.595

# — the supplement of paper PMC10307832
